Data from patent US11414677B2, “Methods and compositions for performing continuous directed evolution” (Massachusetts Institute of Technology, priority 2017, dated 2022).

Tests used:
RFP.ΔAdPol.adenovirus = assay: Time course of antibiotic inhibition of adenoviral replication; assay type: cell-based, Adenovirus type 5; conditions: treatment initiated 24 h post-infection
Description: FIGS. 47A-47B. Time-course of antibiotic-mediated inhibition of adenoviral infection. HEK293A cells expressing wild-type AdPol were infected with RFP.ΔAdPol.adenovirus and treated with either a) puromycin, or b) blasticidin at various time points post-infection (h.p.i.=hours post-infection). After 2 days, the infections were harvested and titered by flow cytometry. Titers are given in infectious units per milliliter (IU/mL), defined as the volume of adenoviral supernatant required to induce fluorescence in a cell as analyzed by flow cytometry. Dashed line represents the limit of detection (L.O.D) of the assay. Titers below this limit are inaccurate due to the percentage of infected cells being below the 1% error threshold of flow cytometry.
RFP.ΔAdPol.adenovirus (TABLE 16) was used to infect a 24-well plate of wild-type AdPol cells (150,000 cells/well) (TABLE 17) at MOI=1, and either blasticidin or puromycin was added at various time points following the infection. Viral supernatants were harvested ˜48 h post-infection, and titered by flow cytometry as described above.

HEK293A cells = assay: Resazurin assay to assess acute toxicity of common tissue culture antibiotics; assay type: cell-based, human; conditions: two-day treatment
Protocol: FIGS. 46A-46D. Resazurin assay to assess acute toxicity of common tissue culture antibiotics. HEK293A cells were treated for two days with either G418 (FIG. 46A), puromycin (FIG. 46B), blasticidin (FIG. 46C), or hygromycin (FIG. 46D), and cell viability was analyzed by resazurin fluorescence.
A 96-well plate was seeded with HEK293A cells (˜15,000) and treated with either puromycin HCl (Corning), Hygromycin B (Thermo Fisher), Blasticidin S HCl (Thermo Fisher), or G418 (Enzo). Two days later, 10 μL of 0.1 mg/mL resazurin (MilliporeSigma) was added and incubated for 1.5 h. Media was transferred to a fresh 96-well plate and fluorescence was analyzed on a Bio-Tek Synergy H1 Hybrid Microplate Reader.

[1] = tested on: 1:10 mixture of tTA.mCherry.ΔAdPol.adenovirus and CFP.GFP.ΔAdPol.adenovirus; assay: Enrichment of tTA-expressing adenovirus by blasticidin selection in TRE3G.blastR cells; assay type: cell-based, Adenovirus type 5; conditions: 20 μM blasticidin, added 10 h post-infection
Protocol: FIG. 49. Enrichment of adenoviruses encoding positive BOI variants by antibiotic selection. TRE3G.blastR cells were infected with a 1:10 mixture of ΔAdPol.adenovirus encoding either tTA (+tTA) or CFP (−tTA) and treated with blasticidin 10 h post-infection. Two days post-infection, adenoviruses were harvested and titered by flow cytometry. Titers are given in infectious units per milliliter (IU/mL), defined as the volume of adenoviral supernatant required to induce fluorescence in a cell as analyzed by flow cytometry. Dashed line represents the limit of detection (L.O.D) of the assay. Titers below this limit are inaccurate due to the percentage of infected cells being below the 1% error threshold of flow cytometry.
A 1:10 mixture of tTA.mCherry.ΔAdPol.adenovirus and CFP.GFP.ΔAdPol.adenovirus (TABLE 16) was used to infect a 24-well plate of TRE3G.blastR cells (150,000 cells/well) (TABLE 17) at MOI=0.7, and blasticidin was added 10 h post-infection. Viral supernatants were harvested ˜48 h post-infection, and titered by flow cytometry as described above.

[2] = tested on: ΔAdPol.adenovirus encoding either tTA or RFP; assay: tTA-induced resistance to antibiotic inhibition of adenoviral replication; assay type: cell-based, Adenovirus type 5; conditions: treatment 10 h post-infection
Protocol: FIGS. 48A-48D. tTA-induced resistance to antibiotic mediated inhibition of adenoviral infection. Either wild-type AdPol cells, TRE3G.puroR cells, or TRE3G.blastR cells were infected with ΔAdPol.adenovirus encoding either tTA (+tTA) or RFP (−tTA). Ten hours post-infection, wild-type AdPol cells were treated with either puromycin (FIG. 48A) or (FIG. 48B) blasticidin, TRE3G.puroR cells were treated with puromycin (FIG. 48C), and TRE3G.blastR cells were treated with blasticidin (FIG. 48D). After 2, days, the infections were harvested and titered by flow cytometry. Titers are given in infectious units per milliliter (IU/mL), defined as the volume of adenoviral supernatant required to induce fluorescence in a cell as analyzed by flow cytometry. Dashed line represents the limit of detection (L.O.D) of the assay. Titers below this limit are inaccurate owing to the percentage of infected cells being below the 1% error threshold of flow cytometry.
Either RFP.ΔAdPol.adenovirus, or tTA.mCherry.ΔAdPol.adenovirus (TABLE 16) was used to infect a 24-well plate of either wild-type AdPol cells, TRE3G.puroR cells, or TRE3G.blastR cells (150,000 cells/well) (TABLE 17) at MOI=1, and either puromycin or blasticidin was added 10 h post-infection. Viral supernatants were harvested ˜48 h post-infection, and titered by flow cytometry as described above.

tTAwt.mCherry adenovirus [3] = assay type: cell-based, Adenovirus type 5
Protocol: FIGS. 21A-21C. FIG. 21A. […] HEK293A cells stably encoding the gene for adenoviral protease (AdProt) under control of the endogenous tTA operator are infected by an initial ratio of 1:100 or 1:1,000 tTAwt.mCherry to tTAmut.GFP viruses. Viral media was serially passaged onto a new plate of cells for three rounds. The viral populations were then determined via flow cytometry. FIG. 21B. Quantification of flow cytometry data from the competition experiment. […] The initial ratio of the 1:1,000 sample (labeled N.D.; not detectable) was not experimentally quantifiable owing to the low amount of tTAwt.mCherry adenovirus present, and was therefore derived by dilution of the 1:100 initial ratio. For raw flow cytometry data, see FIG. 26 and FIG. 27. FIG. 21C. […]
Adenoviral titers were determined through flow cytometry. […] 2-3 days post-infection, cells were washed once with media, stained with 0.2 μg/mL DAPI, and then analyzed on a BD LSR II Analyzer for fluorescent protein expression. Infectious titers were determined by measuring the percentage of cells infected by a known volume of virus. To minimize counting cells that were infected by more than one virus and to minimize any background fluorescence, data were only considered if they fell within the linear range, which typically encompassed samples where 1-10% of cells were infected. […]

tTAwt.mCherry adenovirus [4] = assay: Doxycycline dose response of tTAwt.mCherry adenovirus titer in TRE3G.AdProt cells; assay type: cell-based, Adenovirus type 5; conditions: synchronous infection, various dox concentrations
Protocol: FIG. 36. Dose response of tTA-mCherry titer when treated with doxycycline. […] Titer is given in “infectious units per mL” (IU/mL), which is defined as the number of viruses per mL that are able to elicit a fluorescent signal in cells when analyzed by flow cytometry.
A semi-confluent dish of TRE3G.AdProt cells (˜160,000 cells) (TABLE 13) was infected with tTAwt. mCherry adenovirus (multiplicity of infection ˜2.5) (TABLE 12). After 3 h, the cells were washed twice, and fresh tet-approved media (Takara Bio) supplemented with various concentrations of dox was added. 5 days later, the virus lysates were harvested and viral titers were analyzed by flow cytometry.

[5] = tested on: AdGLΔPol adenoviral genome; conditions: high fidelity deep sequencing by Sanjuán and co-workers (Risso-Ballester et al. 2016); cited from earlier work

## CN(CC[C@H](N)CC(=O)N[C@H]1C=C[C@H](n2ccc(N)nc2=O)O[C@@H]1C(=O)O)C(=N)N [blasticidin]
RFP.ΔAdPol.adenovirus
  inhibition of adenoviral replication: Neither puromycin nor blasticidin were able to inhibit adenoviral replication
HEK293A cells
  dynamic range of inhibitory concentrations: over two orders of magnitude
HEK293A cells; various concentrations
  acute toxicity (cell viability by resazurin fluorescence): completely toxic
[1]
  drop of CFP.ΔAdPol.adenovirus titer: over 100 fold
  tTA.mCherry.ΔAdPol.adenovirus titer: remained steady
[2]; TRE3G.blastR cell line
  effect on RFP.ΔAdPol.adenovirus: still inhibited
  effect on tTA.ΔAdPol.adenovirus: completely resistant to blasticidin treatment
[2]; wild-type AdPol cell line
  effect on ΔAdPol.adenovirus replication: inhibited both RFP-expressing and tTA-expressing ΔAdPol.adenovirus replication

## C[C@H]1c2cccc(O)c2C(=O)C2=C(O)[C@]3(O)C(=O)C(C(N)=O)=C(O)[C@@H](N(C)C)[C@@H]3[C@@H](O)[C@@H]21 [dox, doxycycline]
tTAwt.mCherry adenovirus [3]
  decrease in viral titer: ~10 fold
tTAwt.mCherry adenovirus [4]
  modulation of adenoviral titers: ~10 fold

B1: AdPol: high fidelity wild-type adenovirus type-5 DNA polymerase (protein, UniProt P04495 1-1198, looked up)
DNA polymerase: MALVQAHRARRLHAEAPDSGDQPPRRRVRQQPTRAAPAPARARRRRAPAPSPGGSGAPPTSGGSPASPLLDASSKDTPAAHRPPRGTVVAPRGCGLLQAIDAATNQPLEIRYHLDLARALTRLCEVNLQELPPDLTPRELQTMDSSHLRDVVIKLRPPRADIWTLGSRGVVVRSTVTPLEQPDGQGQAAEVEDHQPNPPGEGLKFPLCFLVRGRQVNLVQDVQPVHRCQYCARFYKSQHECSARRRDFYFHHINSHSSNWWREIQFFPIGSHPRTERLFVTYDVETYTWMGAFGKQLVPFMLVMKFGGDEPLVTAARDLAANLGWDRWEQDPLTFYCITPEKMAIGRQFRTFRDHLQMLMARDLWSSFVASNPHLADWALSEHGLSSPEELTYEELKKLPSIKGIPRFLELYIVGHNINGFDEIVLAAQVINNRSEVPGPFRITRNFMPRAGKILFNDVTFALPNPRSKKRTDFLLWEQGGCDDTDFKYQYLKVMVRDTFALTHTSLRKAAQAYALPVEKGCCAYQAVNQFYMLGSYRSEADGFPIQEYWKDREEFVLNRELWKKKGQDKYDIIKETLDYCALDVQVTAELVNKLRDSYASFVRDAVGLTDASFNVFQRPTISSNSHAIFRQIVFRAEQPARSNLGPDLLAPSHELYDYVRASIRGGRCYPTYLGILREPLYVYDICGMYASALTHPMPWGPPLNPYERALAARAWQQALDLQGCKIDYFDARLLPGVFTVDADPPDETQLDPLPPFCSRKGGRLCWTNERLRGEVATSVDLVTLHNRGWRVHLVPDERTTVFPEWRCVAREYVQLNIAAKERADRDKNQTLRSIAKLLSNALYGSFATKLDNKKIVFSDQMDAATLKGITAGQVNIKSSSFLETDNLSAEVMPAFQREYSPQQLALADSDAEESEDERAPTPFYSPPSGTPGHVAYTYKPITFLDAEEGDMCLHTLERVDPLVDNDRYPSHLASFVLAWTRAFVSEWSEFLYEEDRGTPLEDRPLKSVYGDTDSLFVTERGHRLMETRGKKRIKKHGGNLVFDPERPELTWLVECETVCGACGADAYSPESVFLAPKLYALKSLHCPSCGASSKGKLRAKGHAAEGLDYDTMVKCYLADAQGEDRQRFSTSRTSLKRTLASAQPGAHPFTVTQTTLTRTLRPWKDMTLARLDEHRLLPYSESRPNPRNEEICWIEMP
[5]
  estimated mutation rate: ~1.3×10^−7 mutations per base per viral passage
